Values of other authors, collected in publication PMC3534868 (Pharmaceutical biology, 2011).
Read-outs that look alike come from different tables or passages of the source.

How the values were obtained:
[1] = system: KB (human oral epidermoid carcinoma); details: KB cells; for KB IC50: ref Zhang et al., 2004
Col-2 = Col-2 cells; ref Zhang et al., 2004
LNCaP (prostate) = details: LNCaP cells; ref Zhang et al., 2004
LU-1 (lung) = details: LU-1 cells; ref Zhang et al., 2004
HUVEC = HUVEC cells; ref Zhang et al., 2004
hTERT = hTERT cells; ref Zhang et al., 2004
[2] = system: malaria parasite (chloroquine-sensitive and chloroquine-resistant strains); details: for in vitro activities against the malaria parasites: 2005

C=C(C)[C@@H]1CC[C@]2(C(=O)O)CC[C@]3(C)[C@H](CC[C@@H]4[C@@]5(C)CC[C@H](O)C(C)(C)[C@@H]5CC[C@]43C)[C@@H]12 [SLA7062-K001a, Betulinic acid]
KB ED50 ([1]; ref Ma et al., 2008): >40 µg/mL | D6 IC50 (P. falciparum D6; ref Ma et al., 2008): 3.696 µg/mL | W2 IC50 (P. falciparum W2; ref Ma et al., 2008): 3.776 µg/mL

C=C(C)[C@@H]1CC[C@]2(C(=O)O)CC[C@]3(C)[C@H](CC[C@@H]4[C@@]5(C)CC[C@H](OC(=O)/C=C/c6ccc(OC(C)=O)c(OC(C)=O)c6)C(C)(C)[C@@H]5CC[C@]43C)[C@@H]12 [SLA7062-K001b, Betulinic acid 3β-bisacetylcaffeate]
KB ED50 ([1]; ref Ma et al., 2008): 2.07 µg/mL | D6 IC50 (P. falciparum D6; ref Ma et al., 2008): 0.48 µg/mL | W2 IC50 (P. falciparum W2; ref Ma et al., 2008): 0.443 µg/mL

C=CC(/C=C\c1ccc(O)cc1)c1ccc(O)c(OC)c1 (stereo not drawn) [SLA7037-K006, 3″-Methoxy-nyasol]
KB IC50 [1]: 9.0 µg/mL | Col-2 IC50 (Col-2): 6.3 µg/mL | LNCaP IC50 (LNCaP (prostate)): 6.6 µg/mL | LU-1 IC50 (LU-1 (lung)): 4.5 µg/mL | HUVEC IC50 (HUVEC): 6.7 µg/mL | hTERT IC50 (hTERT): 1.2 µg/mL

Pinoresinol [SLA7062-K004]
KB ED50 ([1]; ref Ma et al., 2008): >40 µg/mL | D6 IC50 (P. falciparum D6; ref Ma et al., 2008): 1.361 µg/mL | W2 IC50 (P. falciparum W2; ref Ma et al., 2008): 3.15 µg/mL

COc1cc([C@H](O[C@@H]2O[C@H](CO)[C@@H](O)[C@H](O)[C@H]2O)[C@H](CO)Oc2c(OC)cc(CCCO)cc2OC)ccc1O [SLA7006-K008, Rourinoside]
KB ED50 ([1]; ref He et al., 2006): >20 µg/mL | D6 IC50 (P. falciparum D6; ref He et al., 2006): 2.1 µg/mL | W2 IC50 (P. falciparum W2; ref He et al., 2006): 1.2 µg/mL | in vitro antimalarial activity ([2]; ref He et al., 2006): in vitro-active

Oc1ccc(C#C/C=C/COc2ccc(O)cc2)cc1 [SLA7037-K010, Asparenydiol]
KB IC50 [1]: 2.4 µg/mL | Col-2 IC50 (Col-2): >20 µg/mL | LNCaP IC50 (LNCaP (prostate)): >20 µg/mL | LU-1 IC50 (LU-1 (lung)): 19.8 µg/mL | HUVEC IC50 (HUVEC): >20 µg/mL | hTERT IC50 (hTERT): 0.2 µg/mL

C=C(C)[C@@H]1CC[C@]2(C(=O)O)CC[C@]3(C)[C@H](CC[C@@H]4[C@@]5(C)CC[C@H](OC(=O)/C=C/c6ccc(O)c(O)c6)C(C)(C)[C@@H]5CC[C@]43C)[C@@H]12 [SLA7062-K001, Betulinic acid 3β-caffeate]
KB ED50 ([1]; ref Ma et al., 2008): 2.5 µg/mL | D6 IC50 (P. falciparum D6; ref Ma et al., 2008): 0.87 µg/mL | W2 IC50 (P. falciparum W2; ref Ma et al., 2008): 0.607 µg/mL | in vitro antimalarial activity ([2]; chloroquine-sensitive and chloroquine-resistant strains, ref Ma et al., 2008): in vitro-active

3″-Hydroxy-4″-methoxy-4″-dehyroxy-nyasol [SLA7037-K007]
KB IC50 [1]: 9.0 µg/mL | Col-2 IC50 (Col-2): 11.7 µg/mL | LNCaP IC50 (LNCaP (prostate)): 11.6 µg/mL | LU-1 IC50 (LU-1 (lung)): 7.2 µg/mL | HUVEC IC50 (HUVEC): 16.4 µg/mL | hTERT IC50 (hTERT): 0.2 µg/mL

Gongroneside A [SLA7530-K001]
KB ED50 ([1]; ref Libman et al., 2008): >20 µg/mL | D6 IC50 (P. falciparum D6; ref Libman et al., 2008): 2.33 µg/mL | W2 IC50 (P. falciparum W2; ref Libman et al., 2008): 2.02 µg/mL | in vitro antimalarial activity ([2]; both strains of the malaria parasites, ref Libman et al., 2008): in vitro-active

Rouremin [SLA7006-K005]
KB ED50 ([1]; ref He et al., 2006): >20 µg/mL | D6 IC50 (P. falciparum D6; ref He et al., 2006): 4 µg/mL | W2 IC50 (P. falciparum W2; ref He et al., 2006): 3.5 µg/mL | in vitro antimalarial activity ([2]; ref He et al., 2006): in vitro-active

C[C@H]1[C@H](C)CC[C@]2(C(=O)O)CC[C@]3(C)C(=CC[C@@H]4[C@@]5(C)CC[C@@H](O)[C@@](C)(CO)[C@@H]5CC[C@]43C)[C@H]12 [SLA7018-K008, 3α,23-Dihydroxy-urs-12-en-28-oic acid]
KB ED50 ([1]; ref He et al., 2005): >20 µg/mL | D6 IC50 (P. falciparum D6; ref He et al., 2005): 4.567 ± 0.702 µg/mL | W2 IC50 (P. falciparum W2; ref He et al., 2005): 6.006 ± 2.581 µg/mL

C[C@H]1CC[C@@]2(OC1)O[C@H]1C[C@H]3[C@@H]4CC[C@@H]5C[C@@H](O[C@@H]6O[C@H](CO[C@@H]7OC[C@H](O)[C@H](O)[C@H]7O)[C@@H](O[C@@H]7OC[C@H](O)[C@H](O)[C@H]7O)[C@H](O)[C@H]6O[C@@H]6O[C@H](CO)[C@@H](O)[C@H](O)[C@H]6O)CC[C@]5(C)[C@H]4CC[C@]3(C)[C@H]1[C@@H]2C [SLA7037-K003, Asparacoside]
KB IC50 [1]: 4.8 µg/mL | Col-2 IC50 (Col-2): 5.4 µg/mL | LNCaP IC50 (LNCaP (prostate)): 10.1 µg/mL | LU-1 IC50 (LU-1 (lung)): 4.2 µg/mL | HUVEC IC50 (HUVEC): 4.1 µg/mL | hTERT IC50 (hTERT): 4.3 µg/mL

CC1(C)CC[C@]2(C(=O)O)CC[C@]3(C)C(=CC[C@@H]4[C@@]5(C)CC[C@H](O)C(C)(C)[C@@H]5CC[C@]43C)[C@@H]2C1 [SLA7018-K003, Oleanolic acid]
KB ED50 ([1]; ref He et al., 2005): 21 µg/mL | D6 IC50 (P. falciparum D6; ref He et al., 2005): 2.116 ± 0.308 µg/mL | W2 IC50 (P. falciparum W2; ref He et al., 2005): 2.335 ± 0.013 µg/mL

COc1cc(OCC=CC#Cc2ccc(O)cc2)ccc1O [SLA7037-K004, 3′-Methoxy-asparenydiol]
KB IC50 [1]: 12.0 µg/mL | Col-2 IC50 (Col-2): >20 µg/mL | LNCaP IC50 (LNCaP (prostate)): >20 µg/mL | LU-1 IC50 (LU-1 (lung)): 19.7 µg/mL | HUVEC IC50 (HUVEC): >20 µg/mL | hTERT IC50 (hTERT): 0.3 µg/mL

C[C@@H]1CC[C@@]2(OC1)O[C@H]1C[C@H]3[C@@H]4CCC5=CC(=O)CC[C@]5(C)[C@H]4C[C@@H](O)[C@]3(C)[C@@]1(O)[C@@H]2C [SLA7037-K001, Asparacosin A]
KB IC50 [1]: 10.7 µg/mL | Col-2 IC50 (Col-2): >20 µg/mL | LNCaP IC50 (LNCaP (prostate)): >20 µg/mL | LU-1 IC50 (LU-1 (lung)): >20 µg/mL | HUVEC IC50 (HUVEC): >20 µg/mL | hTERT IC50 (hTERT): >20 µg/mL

Naucleaorine [SLA7018-K006]
KB ED50 ([1]; ref He et al., 2005): 20 µg/mL | D6 IC50 (P. falciparum D6; ref He et al., 2005): 3.61 ± 0.595 µg/mL | W2 IC50 (P. falciparum W2; ref He et al., 2005): 4.192 ± 0.008 µg/mL | in vitro activities against the malaria parasites ([2]; ref He et al.): showed in vitro activities

epi-Methoxy-naucleaorine [SLA7018-K002]
KB ED50 ([1]; ref He et al., 2005): >20 µg/mL | D6 IC50 (P. falciparum D6; ref He et al., 2005): 6.535 ± 0.151 µg/mL | W2 IC50 (P. falciparum W2; ref He et al., 2005): 6.979 ± 0.008 µg/mL | in vitro activities against the malaria parasites ([2]; ref He et al.): showed in vitro activities
